Measured values from the NIST ThermoML archive (doi:10.1016/j.jct.2019.03.018).
Numbers after ± are expanded uncertainties.

Conditions: Liquid; Ebulliometric method (Recirculating still)
With `CC(C)O` [propan-2-ol] the Normal boiling temperature was 82.18 ± 0.7 °C.
`CCOCC(C)O` (centres undefined) [1-ethoxy-2-propanol] gave a Normal boiling temperature of 131.89 ± 0.7 °C.
With `CC(C)OC(C)C` [diisopropyl ether] the Normal boiling temperature was 68.57 ± 0.7 °C.
`CCCO` [propan-1-ol] showed a Normal boiling temperature of 96.8 ± 0.7 °C.
